{"source": "patent US11590129B2", "about": "“Combination therapy with an antitumor alkaloid” (PHARMA MAR, S.A., priority 2010, dated 2023)", "key": {"[1]": {"test_system": "MDA-MB-231 human breast adenocarcinoma cell line", "experiment": "cells", "conditions": "Homo sapiens, MDA-MB-231, 72 h", "description": "(§1) a. […] Briefly, cells were harvested and seeded in 96 well microtiter plates at a density of 5,000 cells in 150 μL of culture medium and incubated for 24 hours in drug-free medium before treatment with vehicle alone or test compounds for 72 h.\n(§2) The cytotoxic effect was measured by the MTT reduction assay, in which 3-(4,5-Dimethylthiazol-2-yl)-2,5-diphenyltetrazolium bromide, a tetrazole, which is reduced to purple formazan in the mitochondria of living cells, was used. MTT (50 μL of 1 mg/mL stock solution) was added to the wells and incubated for 8 hours at 37° C. until formazan crystals were formed. After gently removing the culture medium, DMSO was added to dissolve the insoluble purple formazan product into a colored solution. […] Results were expressed as percentage of control cell growth.\n(§3) b. In a second set of assays, A549 human tumor cells were incubated with PM01183 in combination with each of the agents mentioned above.\n(§4) As a visual aid, response values were plotted on a scatter plot with dose ratios given on the x-axis and % response values on the y-axis. […] In cases where response values at the two endpoints were approximately equivalent, points lying above or below this predicted line of additivity could be interpreted as representing antagonistic or synergistic drug interaction, respectively.\n(§5) Additional serial dilutions were prepared in serum-free culture medium to achieve a final 4× concentration. Aliquots of 50 μL of each diluted compound were added per well."}, "[2]": {"test_system": "A549 human lung carcinoma cell line", "experiment": "MTT cytotoxicity assay in A549 cells: IC50 of single agents and combinations with PM01183", "format": "cell-based", "conditions": "Homo sapiens", "description": "as §5\nA549 was the human lung carcinoma cell line selected for this assay.\nas §1, §2, §3, §4"}, "[3]": {"test_system": "IGROV-1 human ovarian adenocarcinoma cell line", "experiment": "cells", "conditions": "Homo sapiens, IGROV-1, 72 h", "description": "as §1, §2, §3, §4, §5\nIGROV-1 was the human ovarian adenocarcinoma cell line selected for this assay."}, "[4]": {"test_system": "RXF-393 human kidney carcinoma cell line", "experiment": "cells", "conditions": "Homo sapiens, RXF 393, 72 h", "description": "as §1, §2, §3, §4, §5"}, "[5]": {"test_system": "HT-29 human colon adenocarcinoma cell line", "experiment": "cells", "conditions": "Homo sapiens, HT-29, 72 h", "description": "as §1, §2, §3, §4, §5\nHT-29 was the human colon adenocarcinoma cell line selected for this assay."}, "[6]": {"test_system": "HGC-27 human gastric carcinoma cell line", "experiment": "cells", "conditions": "Homo sapiens, HGC-27, 72 h", "description": "as §1, §2, §3, §4, §5\nHGC-27 was the human gastric carcinoma cell line selected for this assay."}, "[7]": {"test_system": "A673 human rhabdomyosarcoma cell line", "experiment": "cells", "conditions": "Homo sapiens, A673, 72 h", "description": "as §1, §2, §3, §4, §5\nA673 was the human rhabdomyosarcoma cell line selected for this assay."}, "[8]": {"test_system": "HepG2 human hepatocellular liver carcinoma cell line", "experiment": "MTT cytotoxicity assay in HepG2 cells: IC50 of single agents and combinations with PM01183", "format": "cell-based", "conditions": "Homo sapiens", "description": "as §1, §2, §3, §4, §5\nHepG2 was the human hepatocellular liver carcinoma cell line selected for this assay."}, "[9]": {"test_system": "U87-MG human glioblastoma cell line", "experiment": "cells", "conditions": "Homo sapiens, U-87 MG, 72 h", "description": "as §1, §2, §3, §4, §5\nU87-MG was the human glioblastoma cell line selected for this assay."}, "[10]": {"test_system": "U87-MG tumors", "experiment": "Human brain tumor xenografts (U87-MG) in athymic nude mice, tumor volume % T/C", "format": "in vivo", "description": "Female athymic nude mice (Harlan Laboratories Models, S.L. (Barcelona, Spain) were utilized for all experiments. Animals were housed in individually ventilated cages, up to ten per cage in a 12-hour light-dark cycle at 21-23° C. and 40-60% humidity. The mice were allowed free access to irradiated standard rodent diet and sterilized water. Animals were acclimated for at least 5 days prior to tumor implantation with a tumor cell suspension.\nThe tumor model used in these studies was U87-MG cell line, which was obtained from the American Type Culture Collection (ATCC HTB-14™).\nU87-MG cells were grown at 37° C. with 5% CO2 in Minimum Essential Medium Eagle (MEME). Each animal was subcutaneously implanted on the right flank, using 26G needle and a 1 cc syringe, with 5×10^6 U87-MG cells, from in vitro passage 5, in 0.05 mL suspension of 50% Matrigel and 50% serum free medium, without antibiotics.\nPM01183 was provided in the form of vials of lyophilized PM01183 cake which was reconstituted with water for infusion to a concentration of 0.2 mg/mL. The PM01183 stock solution was further diluted in 5% glucose solution for injection to the dosing formulation concentrations. Temozolomide was provided as a solution prepared by diluting the product in DMSO 10% in 0.9% saline solution for injection to the target final concentration.\nIn these experiments, PM01183 and temozolomide treatments, as well as placebo, were administered as follows: PM01183, intravenously once per week up to 3 consecutive weeks, on Days 0, 7 and 14, temozolomide orally, in a daily basis during 8 consecutive days (Days 0 to 7), and placebo was administered following the same schedule as those provided for PM01183 and temozolomide. Dose level groups were administered either as single agents or in combination.\nComparison of the median tumor volume in the treatment groups (T) to the median tumor volume in the control group (T/C×100%) was used for evaluation of the antitumor efficacy."}, "[11]": {"conditions": "A549, 72 hours drug exposure, MTT, read-out: IC50"}, "[12]": {"conditions": "temozolomide 1.5 mg/kg orally daily days 0 to 7"}, "[13]": {"conditions": "temozolomide 3 mg/kg orally daily days 0 to 7"}}, "note": "Where two headings read alike, the source gives them in different places."}
{"smiles": "O=NN(CCCl)C(=O)NCCCl", "note": "[Carmustine, carmustine]", "values": [{"measurement": "IC50", "setting": "[1]", "result": 900, "unit": "µM"}, {"measurement": "IC50", "setting": "[2]; [11]", "result": 1000, "unit": "µM"}, {"measurement": "IC50", "setting": "[3]", "result": 712, "unit": "µM"}]}
{"smiles": "O=P1(N(CCCl)CCCl)NCCCO1", "note": "(stereo not shown) [Cyclophosphamide, cyclophosphamide]", "values": [{"measurement": "IC50", "setting": "[1]", "result": 1000, "unit": "µM"}, {"measurement": "IC50", "setting": "[4]", "result": 1000, "unit": "µM"}, {"measurement": "IC50", "setting": "[2]; A549, 72 h", "result": 1000, "unit": "µM"}, {"measurement": "IC50", "setting": "[5]", "result": 1000, "unit": "µM"}, {"measurement": "IC50", "setting": "[6]", "result": 1000, "unit": "µM"}, {"measurement": "IC50", "setting": "[7]", "result": 1000, "unit": "µM"}, {"measurement": "IC50", "setting": "[8]; HepG2, 72 h", "result": 1000, "unit": "µM"}, {"measurement": "IC50", "setting": "[3]", "result": 1000, "unit": "µM"}]}
{"smiles": "CC[C@]1(O)C[C@H]2CN(CCc3c([nH]c4ccccc34)[C@@](C(=O)OC)(c3cc4c(cc3OC)N(C=O)[C@H]3[C@@](O)(C(=O)OC)[C@H](OC(C)=O)[C@]5(CC)C=CCN6CC[C@]43[C@@H]65)C2)C1", "note": "[Vincristine, vincristine]", "values": [{"measurement": "IC50", "setting": "[9]", "result": 0.1, "unit": "µM"}, {"measurement": "IC50", "setting": "[1]", "result": 0.05, "unit": "µM"}, {"measurement": "IC50", "setting": "[4]", "result": 0.0173, "unit": "µM"}, {"measurement": "IC50", "setting": "[2]; [11]", "result": 0.25, "unit": "µM"}, {"measurement": "IC50", "setting": "[6]", "result": 0.0125, "unit": "µM"}, {"measurement": "IC50", "setting": "[7]", "result": 0.0086, "unit": "µM"}, {"measurement": "IC50", "setting": "[8]; HepG2, 72 hours drug exposure, MTT, read-out: IC50", "result": 0.06, "unit": "µM"}, {"measurement": "IC50", "setting": "[3]", "result": 0.379, "unit": "µM"}]}
{"smiles": "Cn1nnc2c(C(N)=O)ncn2c1=O", "note": "[temozolomide]", "values": [{"measurement": "% T/C on day 0", "setting": "[10]; Temozolomide 1.0 mg/kg", "result": 98.2, "unit": "%"}, {"measurement": "% T/C on day 2", "setting": "[10]; Temozolomide 1.0 mg/kg", "result": 100.2, "unit": "%"}, {"measurement": "% T/C on day 4", "setting": "[10]; Temozolomide 1.0 mg/kg", "result": 65.1, "unit": "%"}, {"measurement": "% T/C on day 7", "setting": "[10]; Temozolomide 1.0 mg/kg", "result": 81.2, "unit": "%"}, {"measurement": "% T/C on day 9", "setting": "[10]; Temozolomide 1.0 mg/kg", "result": 55.0, "unit": "%"}, {"measurement": "% T/C on day 11", "setting": "[10]; Temozolomide 1.0 mg/kg, day 11", "result": 63.5, "unit": "%"}, {"measurement": "% T/C on day 14", "setting": "[10]; Temozolomide 1.0 mg/kg, day 14", "result": 73.1, "unit": "%"}, {"measurement": "% T/C on day 16", "setting": "[10]; Temozolomide 1.0 mg/kg, day 16", "result": 75.0, "unit": "%"}, {"measurement": "% T/C on day 0", "setting": "[10]; Temozolomide 1.5 mg/kg", "result": 94.1, "unit": "%"}, {"measurement": "% T/C on day 2", "setting": "[10]; Temozolomide 1.5 mg/kg", "result": 96.9, "unit": "%"}, {"measurement": "% T/C on day 4", "setting": "[10]; Temozolomide 1.5 mg/kg", "result": 75.6, "unit": "%"}, {"measurement": "% T/C on day 7", "setting": "[10]; Temozolomide 1.5 mg/kg", "result": 73.0, "unit": "%"}, {"measurement": "% T/C on day 9", "setting": "[10]; Temozolomide 1.5 mg/kg", "result": 56.5, "unit": "%"}, {"measurement": "% T/C on day 11", "setting": "[10]; Temozolomide 1.5 mg/kg, day 11", "result": 59.3, "unit": "%"}, {"measurement": "% T/C on day 14", "setting": "[10]; Temozolomide 1.5 mg/kg, day 14", "result": 50.0, "unit": "%"}, {"measurement": "% T/C on day 16", "setting": "[10]; Temozolomide 1.5 mg/kg, day 16", "result": 53.5, "unit": "%"}, {"measurement": "% T/C on day 0", "setting": "[10]; Temozolomide 3.0 mg/kg", "result": 97.1, "unit": "%"}, {"measurement": "% T/C on day 2", "setting": "[10]; Temozolomide 3.0 mg/kg", "result": 95.5, "unit": "%"}, {"measurement": "% T/C on day 4", "setting": "[10]; Temozolomide 3.0 mg/kg", "result": 67.3, "unit": "%"}, {"measurement": "% T/C on day 7", "setting": "[10]; Temozolomide 3.0 mg/kg", "result": 39.4, "unit": "%"}, {"measurement": "% T/C on day 9", "setting": "[10]; Temozolomide 3.0 mg/kg", "result": 25.3, "unit": "%"}, {"measurement": "% T/C on day 11", "setting": "[10]; Temozolomide 3.0 mg/kg, day 11", "result": 22.9, "unit": "%"}, {"measurement": "% T/C on day 14", "setting": "[10]; Temozolomide 3.0 mg/kg, day 14", "result": 28.4, "unit": "%"}, {"measurement": "% T/C on day 16", "setting": "[10]; Temozolomide 3.0 mg/kg, day 16", "result": 31.5, "unit": "%"}, {"measurement": "% T/C on day 11", "setting": "[10]; [12]", "result": 59.3, "unit": "%"}, {"measurement": "% T/C on day 14", "setting": "[10]; [12]", "result": 50.0, "unit": "%"}, {"measurement": "% T/C on day 16", "setting": "[10]; [12]", "result": 53.5, "unit": "%"}, {"measurement": "% T/C on day 11", "setting": "[10]; [13]", "result": 22.9, "unit": "%"}, {"measurement": "% T/C on day 14", "setting": "[10]; [13]", "result": 28.4, "unit": "%"}, {"measurement": "% T/C on day 16", "setting": "[10]; [13]", "result": 31.5, "unit": "%"}]}
